Structures are written as SMILES. pEC50: −log10 of the molar value. Where two headings read alike, the source gives them in different places.

The subject of experiment [1] is fibrosarcoma cell line HT1080. Description: Ferroptosis screening model (MTT method), Erastin-induced ferroptosis. Format: cell-based, human. A digest of the protocol: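 HT1080 cells adhered 24 h, then received compound plus Erastin ([…] final) for 72 h at 37 °C, 5% CO2, in triplicate. Viability by MTT with SDS solubilisation, absorbance at 570 nm; inhibition of ferroptosis fitted to give EC50.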
Background: Formazan colour is commonly taken as a measure of viable cells.

Experiment [2] has as its system rat middle cerebral artery occlusion (MCAO) stroke model. Description: Rat middle cerebral artery occlusion (MCAO) stroke model, different doses. Format: in vivo. Particulars: for Infarct weight: tail vein injection, 24 h of reperfusion, TTC stain; for Inhibition rate of cerebral infarction: versus model group infarct range. As to the method: By rat middle cerebral artery occlusion (MCAO) stroke model (also called cerebral ischemia model), the therapeutic effect of the compound of the present invention on ischemic stroke in SD rats at different doses was studied. Male SD rats were selected and induced anesthesia by 2-3.0% isoflurane. The middle cerebral artery was blocked by the thread plug method, resulting in rat ischemia model; the ischemic rats were placed at room temperature and kept their body temperature being 37° C. 60 minutes after ischemia onset, the rats were scored by Bederson neurobehavioral scale to determine whether the model was successfully made. 90 min after ischemia onset, the thread plug was pulled out for reperfusion. […] After 24 h of reperfusion, the animals were scored by NSS scale to evaluate neurological deficit. And then the animals were dissected, brains were collected and subjected to TTC stain. […] The percentage of the weight of the infarct tissue based on the weight of the whole brain was regarded as the infarct range (%), and the inhibition rate (%) of each drug treatment group was calculated based on the infarct range.

Setting [3] is: Homo sapiens, HT-1080, 72 h, HT1080, ferroptosis inducer Erastin, 72 h, average of three tests, read-out: EC50.
[4] abbreviates: HT1080, ferroptosis inducer Erastin, 72 h, average of three tests, read-out: EC50.
The mark [5] stands for this setting: positive drug butylphthalide 10 mg/kg.

Turning to `CC(c1ccc(N2CCN(C)CC2)cc1)c1ccc2c(c1)Nc1ccccc1S2` (centres unmarked) [Compound A38, 2-(1-(4-(4-methylpiperazin-1-yl)phenyl)ethyl)-10H-phenothiazine], the pEC50 in experiment [1] (setting [3]) was 9.30; in experiment [1] (Homo sapiens, HT-1080, HT1080, Erastin, read-out: EC50 value), roughly 9.00. The Infarct weight in experiment [2] (high dose 2.5 mg/kg) came out at 0.126 ± 0.072 g; in experiment [2] (low dose 0.5 mg/kg) it was 0.170 ± 0.041 g; in experiment [2] (medium dose 1.25 mg/kg), 0.152 ± 0.064 g; in experiment [2] (very low dose 0.2 mg/kg), 0.187 ± 0.078 g. Further, the “Inhibition rate of cerebral infarction” value was determined as 50.885% in experiment [2] (high dose 2.5 mg/kg), 31.209% in experiment [2] (low dose 0.5 mg/kg), 38.968% in experiment [2] (medium dose 1.25 mg/kg) and 27.307% in experiment [2] (very low dose 0.2 mg/kg).

Consider `CCOC(=O)[C@@H]1CCCN(S(=O)(=O)C(C)c2ccc3c(c2)Nc2ccccc2S3)C1` (stereo partly drawn) [Compound C39, ethyl (3R)-1-((1-(10H-phenothiazin-2-yl)ethyl)sulfonyl)piperidin-3-formate], for which, in experiment [1] (setting [3]), the pEC50 was 6.61. For `CC(c1ccc2c(c1)Nc1ccccc1S2)S(=O)(=O)N1CCCC(O)C1` (centres unmarked) [Compound C40, 1-((1-(10H-phenothiazin-2-yl)ethyl)sulfonyl)piperidin-3-ol], the pEC50 in experiment [1] (setting [3]) is 6.85. Consider `CC(c1ccc2c(c1)Nc1ccccc1S2)S(=O)(=O)N1CC[C@H](O)C1` (some centres unmarked) [Compound C41], for which, in experiment [1] (setting [3]), the pEC50 is 6.93. As to `CC(c1ccc2c(c1)Nc1ccccc1S2)S(=O)(=O)N1CCC[C@@H]1C` (some centres unmarked) [Compound C42], the pEC50 in experiment [1] (setting [3]) was 6.47. Consider `CC(c1ccc2c(c1)Nc1ccccc1S2)S(=O)(=O)N1CCC(N2CCCCC2)CC1` (centres unmarked) [Compound C43, 2-(1-([1,4′-dipiperidin]-1′-ylsulfonyl)ethyl)-10H-phenothiazine], for which the negative logarithm of the EC50 (pEC50) in experiment [1] (setting [3]) was 7.31. As for `CC(c1ccc2c(c1)Nc1ccccc1S2)S(=O)(=O)N1C[C@@H](C)O[C@@H](C)C1` (stereo partly drawn) [Compound C44, (2S,6R)-4-((1-(10H-phenothiazin-2-yl)ethyl)sulfonyl)-2,6-dimethylmorpholine], the pEC50 in experiment [1] (setting [3]) was 6.37.

Take `CC1CCN(S(=O)(=O)C(C)c2ccc3c(c2)Nc2ccccc2S3)CC1` (centres unmarked) [Compound C45, 2-(1-((4-methylpiperidin-1-yl)sulfonyl)ethyl)-10H-phenothiazine]: the pEC50 in experiment [1] (setting [3]) is 6.65. Turning to `CC1CCCN(S(=O)(=O)C(C)c2ccc3c(c2)Nc2ccccc2S3)C1` (centres unmarked) [Compound C46, 2-(1-((3-methylpiperidin-1-yl)sulfonyl)ethyl)-10H-phenothiazine], the pEC50 in experiment [1] (setting [3]) is 6.81. Consider `CC(c1ccc2c(c1)Nc1ccccc1S2)S(=O)(=O)N1CCC(C(N)=O)CC1` (centres unmarked) [Compound C47, 1-((1-(10H-phenothiazin-2-yl)ethyl)sulfonyl)piperidin-4-formamide], for which the pEC50 in experiment [1] (setting [3]) was 6.65.

In the case of `CC1CN(S(=O)(=O)C(C)c2ccc3c(c2)Nc2ccccc2S3)CC(C)N1` (centres unmarked) [Compound C48, 2-(1-((3,5-dimethylpiperazin-1-yl)sulfonyl)ethyl)-10H-phenothiazine], in experiment [1] (setting [3]), the pEC50 was 7.46.

Turning to `COc1ccccc1N1CCN(S(=O)(=O)C(C)c2ccc3c(c2)Nc2ccccc2S3)CC1` (centres unmarked) [Compound C49, 2-(1-((4-(2-methoxylphenyl)piperazin-1-yl)sulfonyl)ethyl)-10H-phenothiazine], the pEC50 in experiment [1] (setting [4]) was 6.64.

For the molecule `C=C(c1cnc(N2CCOCC2)nc1)c1ccc2c(c1)Nc1ccccc1S2` [Compound C51, 4-(5-(1-(10H-phenothiazin-2-yl)ethenyl)pyrimidin-2-yl)morpholine], the pEC50 in experiment [1] (setting [4]) was 6.84. As for `CC(c1ccc2c(c1)Nc1ccccc1S2)S(=O)(=O)N1CCN(c2ncccn2)CC1` (centres unmarked) [Compound C52, 2-(1-((4-(pyrimidin-2-yl)piperazin-1-yl)sulfonyl)ethyl)-10H-phenothiazine], in experiment [1] (setting [3]), the pEC50 was 7.16. Still for that read-out and setting: under `CC(c1ccc2c(c1)Nc1ccccc1S2)S(=O)(=O)N1CCN(c2ccc(C#N)cc2)CC1` (centres unmarked) [Compound C53, 4-(4-((1-(10H-phenothiazin-2-yl)ethyl)sulfonyl)piperazin-1-yl)benzonitrile] stands 6.74. Regarding `COc1cccc(N2CCN(S(=O)(=O)C(C)c3ccc4c(c3)Nc3ccccc3S4)CC2)c1` (centres unmarked) [Compound C54, 2-(1-((4-(3-methoxylphenyl)piperazin-1-yl)sulfonyl)ethyl)-10H-phenothiazine], the pEC50 in experiment [1] (setting [3]) is 6.78. Still for that read-out and setting: under `CC(c1ccc2c(c1)Nc1ccccc1S2)S(=O)(=O)N1CCN(c2ccc([N+](=O)[O-])cc2)CC1` (centres unmarked) [Compound C55, 2-(1-((4-(4-nitrophenyl)piperazin-1-yl)sulfonyl)ethyl)-10H-phenothiazine] stands 7.15; under `CC(c1ccc2c(c1)Nc1ccccc1S2)S(=O)(=O)N1CCN(c2ccc(C(F)(F)F)cc2)CC1` (centres unmarked) [Compound C56, 2-(1-((4-(4-(trifluoromethyl)phenyl)piperazin-1-yl)sulfonyl)ethyl)-10H-phenothiazine], 6.67; under `CC(c1ccc2c(c1)Nc1ccccc1S2)S(=O)(=O)N1CCN(c2cnccn2)CC1` (centres unmarked) [Compound C57, 2-(1-((4-(pyrazin-2-yl)piperazin-1-yl)sulfonyl)ethyl)-10H-phenothiazine], 6.89. Consider `CCCCN1CCN(S(=O)(=O)C(C)c2ccc3c(c2)Nc2ccccc2S3)CC1` (centres unmarked) [Compound C58, 2-(1-((4-butylpiperazin-1-yl)sulfonyl)ethyl)-10H-phenothiazine], for which the pEC50 in experiment [1] (setting [3]) was 6.75. Take `Cc1ccc(N2CCN(S(=O)(=O)C(C)c3ccc4c(c3)Nc3ccccc3S4)CC2)cc1` (centres unmarked) [Compound C59, 2-(1-((4-(p-methylphenyl)piperazin-1-yl)sulfonyl)ethyl)-10H-phenothiazine]: the pEC50 in experiment [1] (setting [3]) was 6.85.

For `CCOC(=O)c1ccc(NC2CCCCC2)c(N)c1` [Fer-1, Ferrostatin-1, reference compound], the pEC50 in experiment [1] (setting [4]) is 7.22. `CCCCC1OC(=O)c2ccccc21` (centres unmarked) [Positive drug, butylphthalide, reference compound]: the NSS score in experiment [2] (positive drug butylphthalide 10 mg/kg, after 24 h of reperfusion) turned out to be 8.500 ± 1.401. In experiment [2] (setting [5]), the Infarct weight came to 0.193 ± 0.075 g and the “Inhibition rate of cerebral infarction” value is recorded as 24.477%. In addition, in experiment [2] (positive drug butylphthalide 10 mg/kg, infarct tissue weight as % of whole brain weight), the Infarct range worked out at 13.292 ± 4.476 %.

The pEC50 is the EC50 on a negative log10 scale, so that one unit is a factor of ten.

The values above are taken from patent publication US11440909B2, “10H-phenothiazine ferroptosis inhibitor as well as the preparative method and the use thereof” (CHENGDU HENGHAO INVESTMENT CO. LIMITED, priority 2018, dated 2022).
